Source: paper PMC6390583 (BMC rheumatology, 2018)
Where “and” joins values, the source holds several entries; their conditions need not be identical. Equal entries are not always repeated.

Legend:
Assay in all cases: trFRET binding kinome profiling
ACVR1 = ACVR1 (Homo sapiens, UniProt Q04771)
Method: (§1) JAK activity assays using isolated kinase domains in the presence of 0.1 mM ATP and trFRET kinome profiling were conducted as described previously (17).

ALK = ALK (Homo sapiens, UniProt Q9UM73)
Method: as §1

AMPK = target: AMPK
Method: as §1

Akt1 = Akt1 (Homo sapiens, UniProt P31749)
Method: as §1

BTK = BTK (Homo sapiens, UniProt Q06187)
Method: as §1

CAMK2A = CAMK2A (Homo sapiens, UniProt Q9UQM7)
Method: as §1

CAMKK2 = CAMKK2 (Homo sapiens, UniProt Q96RR4)
Method: as §1

CDK2 = CDK2 (Homo sapiens, UniProt P24941)
Method: as §1

CSF1R = CSF1R (Homo sapiens, UniProt P07333)
Method: as §1

DYRK1A = DYRK1A (Homo sapiens, UniProt Q13627)
Method: as §1

DYRK1B = DYRK1B (Homo sapiens, UniProt Q9Y463)
Method: as §1

EGFR = EGFR (Homo sapiens, UniProt P00533)
Method: as §1

Erk2 = Erk2 (Homo sapiens, UniProt P28482)
Method: as §1

FAK = FAK (Homo sapiens, UniProt Q05397)
Method: as §1

Fyn = Fyn (Homo sapiens, UniProt P06241)
Method: as §1

Gsk3a = Gsk3a (Homo sapiens, UniProt P49840)
Method: as §1

IKKE = IKKE (Homo sapiens, UniProt Q14164)
Method: as §1

InsR = InsR (Homo sapiens, UniProt P06213)
Method: as §1

JNK1 = JNK1 (Homo sapiens, UniProt P45983)
Method: as §1

JNK2 = JNK2 (Homo sapiens, UniProt P45984)
Chain of JNK2 (P45984 whole entry, species assumed): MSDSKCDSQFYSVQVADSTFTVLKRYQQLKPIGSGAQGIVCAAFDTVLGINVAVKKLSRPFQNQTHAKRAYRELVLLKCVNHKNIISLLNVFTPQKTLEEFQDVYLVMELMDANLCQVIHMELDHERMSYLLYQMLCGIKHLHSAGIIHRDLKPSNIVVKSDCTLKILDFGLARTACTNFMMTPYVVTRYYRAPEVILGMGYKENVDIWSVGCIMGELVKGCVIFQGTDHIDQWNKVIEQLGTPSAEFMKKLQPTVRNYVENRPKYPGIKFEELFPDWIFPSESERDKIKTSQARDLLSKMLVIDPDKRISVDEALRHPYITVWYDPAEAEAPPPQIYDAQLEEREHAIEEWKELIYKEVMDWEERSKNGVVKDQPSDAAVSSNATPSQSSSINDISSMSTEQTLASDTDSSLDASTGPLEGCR
Method: as §1

KDR = KDR (Homo sapiens, UniProt P35968)
Method: as §1

MAP2K3 = MAP2K3 (Homo sapiens, UniProt P46734)
Chain of MAP2K3 (P46734 whole entry, species assumed): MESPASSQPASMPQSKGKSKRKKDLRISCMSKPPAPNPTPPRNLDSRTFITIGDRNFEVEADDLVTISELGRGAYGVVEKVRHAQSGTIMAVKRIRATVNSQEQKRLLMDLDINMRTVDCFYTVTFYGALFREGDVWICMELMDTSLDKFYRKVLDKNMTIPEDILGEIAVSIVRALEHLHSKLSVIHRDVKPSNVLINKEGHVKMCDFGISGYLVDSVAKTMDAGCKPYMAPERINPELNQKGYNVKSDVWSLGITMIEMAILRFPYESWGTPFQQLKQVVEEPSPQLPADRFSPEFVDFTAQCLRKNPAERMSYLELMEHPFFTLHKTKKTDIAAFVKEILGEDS
Method: as §1

MAP3K10 = MAP3K10 (Homo sapiens, UniProt Q02779)
Chain of MAP3K10 (Q02779 whole entry, species assumed): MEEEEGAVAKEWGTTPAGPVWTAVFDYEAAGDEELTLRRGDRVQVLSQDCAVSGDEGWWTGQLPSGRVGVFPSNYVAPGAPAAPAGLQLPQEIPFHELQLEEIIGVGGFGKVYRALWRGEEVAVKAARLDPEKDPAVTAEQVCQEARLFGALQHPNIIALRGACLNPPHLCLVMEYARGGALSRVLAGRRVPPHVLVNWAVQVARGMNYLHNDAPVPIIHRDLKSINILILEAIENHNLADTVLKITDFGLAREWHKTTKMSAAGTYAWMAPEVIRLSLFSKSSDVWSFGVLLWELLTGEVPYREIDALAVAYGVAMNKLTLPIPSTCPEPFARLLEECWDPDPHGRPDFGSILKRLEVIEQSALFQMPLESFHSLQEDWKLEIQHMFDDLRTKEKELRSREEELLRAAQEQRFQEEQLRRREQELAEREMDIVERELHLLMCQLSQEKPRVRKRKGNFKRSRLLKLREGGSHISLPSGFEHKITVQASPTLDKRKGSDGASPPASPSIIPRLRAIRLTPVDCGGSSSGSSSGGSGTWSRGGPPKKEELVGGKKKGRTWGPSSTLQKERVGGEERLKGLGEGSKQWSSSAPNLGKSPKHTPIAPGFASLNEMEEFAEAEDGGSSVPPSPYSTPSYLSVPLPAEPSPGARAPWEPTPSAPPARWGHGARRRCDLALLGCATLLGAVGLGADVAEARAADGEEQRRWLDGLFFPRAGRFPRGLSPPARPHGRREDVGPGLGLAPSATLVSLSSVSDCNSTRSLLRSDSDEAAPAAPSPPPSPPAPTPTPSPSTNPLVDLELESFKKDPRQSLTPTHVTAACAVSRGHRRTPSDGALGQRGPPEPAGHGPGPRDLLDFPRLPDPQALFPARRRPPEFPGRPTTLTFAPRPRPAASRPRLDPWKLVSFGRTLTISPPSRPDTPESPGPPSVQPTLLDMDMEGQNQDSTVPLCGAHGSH
Method: as §1

MAP4K2 = MAP4K2 (Homo sapiens, UniProt Q12851)
Method: as §1

MAP4K4 = MAP4K4 (Homo sapiens, UniProt O95819)
Method: as §1

MEK1 = MEK1 (Homo sapiens, UniProt Q02750)
Method: as §1

MST1 = MST1 (Homo sapiens, UniProt Q13043)
Method: as §1

Nek2 = Nek2 (Homo sapiens, UniProt P51955)
Method: as §1

PAK4KD = target: T1, PAK4KD (Homo sapiens, UniProt O96013)
T1 construct: PAK4KD
Method: as §1

PDGFRB = PDGFRB (Homo sapiens, UniProt P09619)
Method: as §1

PKCzeta = PKCzeta (Homo sapiens, UniProt Q05513)
Chain of PKCzeta (Q05513 whole entry): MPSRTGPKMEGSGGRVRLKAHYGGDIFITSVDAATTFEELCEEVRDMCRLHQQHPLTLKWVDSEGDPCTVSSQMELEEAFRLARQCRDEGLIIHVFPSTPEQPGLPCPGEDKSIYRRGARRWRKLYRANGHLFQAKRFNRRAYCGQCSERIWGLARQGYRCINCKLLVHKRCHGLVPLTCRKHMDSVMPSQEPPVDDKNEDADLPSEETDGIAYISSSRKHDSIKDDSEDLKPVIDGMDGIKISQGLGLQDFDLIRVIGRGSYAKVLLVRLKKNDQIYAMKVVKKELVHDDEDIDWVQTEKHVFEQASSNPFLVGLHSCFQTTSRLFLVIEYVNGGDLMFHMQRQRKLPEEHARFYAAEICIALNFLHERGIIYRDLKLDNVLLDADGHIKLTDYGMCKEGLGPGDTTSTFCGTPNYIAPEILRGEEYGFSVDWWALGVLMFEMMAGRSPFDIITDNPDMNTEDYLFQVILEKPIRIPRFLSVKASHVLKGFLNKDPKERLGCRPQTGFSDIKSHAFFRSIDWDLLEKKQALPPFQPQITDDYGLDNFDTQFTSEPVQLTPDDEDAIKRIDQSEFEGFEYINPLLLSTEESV
Method: as §1

Pim2 = Pim2 (Homo sapiens, UniProt Q9P1W9)
Chain of Pim2 (Q9P1W9 whole entry, species assumed): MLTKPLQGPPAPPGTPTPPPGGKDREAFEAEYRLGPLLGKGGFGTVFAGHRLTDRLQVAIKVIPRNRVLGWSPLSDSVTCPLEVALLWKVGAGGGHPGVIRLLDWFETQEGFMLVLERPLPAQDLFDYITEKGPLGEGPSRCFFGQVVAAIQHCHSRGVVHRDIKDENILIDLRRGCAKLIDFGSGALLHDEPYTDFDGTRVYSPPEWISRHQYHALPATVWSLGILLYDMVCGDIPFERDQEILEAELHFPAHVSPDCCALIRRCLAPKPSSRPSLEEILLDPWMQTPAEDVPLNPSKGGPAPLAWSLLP
Method: as §1

Prkcn = Prkcn (Homo sapiens, UniProt O94806)
Method: as §1

RET = RET (Homo sapiens, UniProt P07949)
Chain of RET (P07949 29-1114, species assumed): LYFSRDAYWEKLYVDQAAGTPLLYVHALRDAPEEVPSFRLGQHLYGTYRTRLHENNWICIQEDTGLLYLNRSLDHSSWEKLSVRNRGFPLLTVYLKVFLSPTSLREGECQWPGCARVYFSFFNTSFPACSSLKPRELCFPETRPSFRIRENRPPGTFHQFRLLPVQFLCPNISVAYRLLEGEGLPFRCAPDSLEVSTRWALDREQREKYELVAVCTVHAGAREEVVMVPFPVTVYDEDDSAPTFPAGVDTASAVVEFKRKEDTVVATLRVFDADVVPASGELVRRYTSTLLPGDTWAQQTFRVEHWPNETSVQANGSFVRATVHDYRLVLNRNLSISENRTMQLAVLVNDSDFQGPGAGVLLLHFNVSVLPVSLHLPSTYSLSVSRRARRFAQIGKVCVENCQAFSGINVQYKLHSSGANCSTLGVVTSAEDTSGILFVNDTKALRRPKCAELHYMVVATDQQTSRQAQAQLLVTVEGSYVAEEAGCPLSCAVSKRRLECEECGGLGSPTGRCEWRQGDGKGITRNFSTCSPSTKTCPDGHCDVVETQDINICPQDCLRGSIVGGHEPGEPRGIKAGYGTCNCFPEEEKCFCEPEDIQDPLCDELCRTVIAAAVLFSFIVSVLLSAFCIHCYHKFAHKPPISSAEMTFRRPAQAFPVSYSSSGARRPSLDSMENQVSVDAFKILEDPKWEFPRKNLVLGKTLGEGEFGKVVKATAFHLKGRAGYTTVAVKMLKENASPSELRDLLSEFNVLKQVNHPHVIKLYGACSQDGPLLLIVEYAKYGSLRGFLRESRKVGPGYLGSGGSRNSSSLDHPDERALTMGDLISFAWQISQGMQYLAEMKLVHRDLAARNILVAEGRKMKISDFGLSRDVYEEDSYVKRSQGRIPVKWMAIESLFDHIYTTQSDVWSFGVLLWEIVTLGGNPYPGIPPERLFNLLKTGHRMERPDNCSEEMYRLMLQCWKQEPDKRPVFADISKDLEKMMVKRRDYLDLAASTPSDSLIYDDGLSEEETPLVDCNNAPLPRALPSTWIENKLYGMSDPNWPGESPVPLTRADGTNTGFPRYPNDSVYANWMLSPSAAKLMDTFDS
Method: as §1

Rock1 = Rock1 (Homo sapiens, UniProt Q13464)
Chain of Rock1 (Q13464 whole entry, species assumed): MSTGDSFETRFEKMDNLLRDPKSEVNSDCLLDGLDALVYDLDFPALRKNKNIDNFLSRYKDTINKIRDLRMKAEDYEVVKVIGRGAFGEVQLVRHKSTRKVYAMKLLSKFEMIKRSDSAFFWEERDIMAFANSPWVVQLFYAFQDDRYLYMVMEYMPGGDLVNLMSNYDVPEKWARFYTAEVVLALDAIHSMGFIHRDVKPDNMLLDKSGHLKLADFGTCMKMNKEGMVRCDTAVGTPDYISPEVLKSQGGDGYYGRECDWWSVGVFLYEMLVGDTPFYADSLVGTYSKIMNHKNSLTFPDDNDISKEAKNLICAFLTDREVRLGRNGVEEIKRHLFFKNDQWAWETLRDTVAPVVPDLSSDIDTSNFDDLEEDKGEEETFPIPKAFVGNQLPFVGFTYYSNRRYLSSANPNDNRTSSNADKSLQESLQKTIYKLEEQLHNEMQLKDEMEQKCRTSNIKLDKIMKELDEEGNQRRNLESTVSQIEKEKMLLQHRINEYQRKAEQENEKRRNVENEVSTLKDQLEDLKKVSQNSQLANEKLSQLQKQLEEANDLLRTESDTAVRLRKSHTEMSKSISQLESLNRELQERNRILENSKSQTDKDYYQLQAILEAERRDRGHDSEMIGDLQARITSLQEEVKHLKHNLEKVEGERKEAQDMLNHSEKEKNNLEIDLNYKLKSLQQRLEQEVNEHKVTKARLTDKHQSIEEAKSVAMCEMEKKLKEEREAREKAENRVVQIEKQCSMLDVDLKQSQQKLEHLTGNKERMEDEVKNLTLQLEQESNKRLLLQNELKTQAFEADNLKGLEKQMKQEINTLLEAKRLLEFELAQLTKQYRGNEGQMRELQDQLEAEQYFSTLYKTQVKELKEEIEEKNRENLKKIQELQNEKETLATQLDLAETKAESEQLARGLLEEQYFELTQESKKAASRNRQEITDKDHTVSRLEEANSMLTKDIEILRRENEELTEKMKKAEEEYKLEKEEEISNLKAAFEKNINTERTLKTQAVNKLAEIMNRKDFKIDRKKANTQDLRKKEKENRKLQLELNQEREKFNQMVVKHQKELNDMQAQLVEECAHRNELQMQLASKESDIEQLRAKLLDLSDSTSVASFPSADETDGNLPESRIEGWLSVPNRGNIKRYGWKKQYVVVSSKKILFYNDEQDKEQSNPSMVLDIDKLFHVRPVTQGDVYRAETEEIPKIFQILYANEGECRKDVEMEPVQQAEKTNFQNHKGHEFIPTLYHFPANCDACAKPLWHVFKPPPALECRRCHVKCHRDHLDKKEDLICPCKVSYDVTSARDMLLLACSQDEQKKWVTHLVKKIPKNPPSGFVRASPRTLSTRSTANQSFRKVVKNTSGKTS
Method: as §1

Rsk2 = Rsk2 (Homo sapiens, UniProt P51812)
Method: as §1

SGK1 = SGK1 (Homo sapiens, UniProt O00141)
Method: as §1

STK16 = STK16 (Homo sapiens, UniProt O75716)
Method: as §1

STK33 = STK33 (Homo sapiens, UniProt Q9BYT3)
Method: as §1

Syk = Syk (Homo sapiens, UniProt P43405)
Method: as §1

TAOK2 = TAOK2 (Homo sapiens, UniProt Q9UL54)
Method: as §1

TYRO3 = TYRO3 (Homo sapiens, UniProt Q06418)
Method: as §1

TrkB = TrkB (Homo sapiens, UniProt Q16620)
Method: as §1

TrkC = TrkC (Homo sapiens, UniProt Q16288)
Method: as §1

Zipk = Zipk (Homo sapiens, UniProt O43293)
Method: as §1

p38 alpha = p38 alpha (Homo sapiens, UniProt Q16539)
Method: as §1

Compound: CC[C@@H]1CN(C(=O)NCC(F)(F)F)C[C@@H]1c1cnc2cnc3[nH]ccc3n12 [upadacitinib, (3S,4R)-3-ethyl-4-(3H-imidazo [1,2-a]pyrrolo [2,3-e]pyrazin-8-yl)-N-(2,2,2-trifluoroethyl) pyrrolidine-1-carboxamide]
- IC50 (ACVR1): > 10 µM
- IC50 (ALK): > 5.5 µM
- IC50 (AMPK): > 4.5 µM
- IC50 (Akt1): > 10 µM
- IC50 (BTK): > 10 µM
- IC50 (CAMK2A): > 10 µM
- IC50 (CAMKK2): > 10 µM
- IC50 (CDK2): > 10 µM
- IC50 (CSF1R): > 10 µM
- IC50 (DYRK1A): > 10 µM
- IC50 (DYRK1B): > 10 µM
- IC50 (EGFR): > 10 µM
- IC50 (Erk2): > 10 µM
- IC50 (FAK): > 10 µM
- IC50 (Fyn): > 10 µM
- IC50 (Gsk3a): > 10 µM
- IC50 (IKKE): > 10 µM
- IC50 (InsR): > 10 µM
- IC50 (JNK1): > 10 µM
- IC50 (JNK2): > 10 µM
- IC50 (KDR): > 1.5 µM
- IC50 (MAP2K3): > 10 µM
- IC50 (MAP3K10): > 10 µM
- IC50 (MAP4K2): > 10 µM
- IC50 (MAP4K4): > 10 µM
- IC50 (MEK1): > 10 µM
- IC50 (MST1): > 10 µM
- IC50 (Nek2): > 10 µM
- IC50 (PAK4KD): > 10 µM
- IC50 (PDGFRB): > 10 µM
- IC50 (PKCzeta): > 10 µM
- IC50 (Pim2): > 10 µM
- IC50 (Prkcn): > 10 µM
- IC50 (RET): 2.4 µM
- IC50 (Rock1): < 1 µM and 0.92 µM
- IC50 (Rsk2): > 9.6 µM
- IC50 (SGK1): > 10 µM
- IC50 (STK16): 9.7 µM
- IC50 (STK33): > 10 µM
- IC50 (Syk): > 10 µM
- IC50 (TAOK2): > 10 µM
- IC50 (TYRO3): > 10 µM
- IC50 (TrkB): > 10 µM
- IC50 (TrkC): > 10 µM
- IC50 (Zipk): > 10 µM
- IC50 (p38 alpha): > 10 µM
